Structures can show the parent of a compound that is named as a salt. Where two headings read alike, the source gives them in different places.
Biological target: T1, VEGF-A/VEGFR1 (recombinant VEGF-A binding to immobilized VEGFR1) (Homo sapiens, UniProt P17948)
T1 construct: purchased R&D Systems
Assay: Competitive ELISA for VEGF-A/VEGFR-1 interaction
Format: biochemical
Procedure: The competitive ELISA based assay was performed by coating on 96-well plates a recombinant form of VEGFR-1 (R&D Systems, Minneapolis, MN, USA) at 0.5 µg/mL in PBS, 100 µL/well (the same volume was used for all subsequent steps), 16 h at room temperature. The plate was then blocked for 3 h at RT with 1% bovine serum albumin (BSA). Recombinant form of VEGF-A (R&D Systems) at 5 ng/mL in PBS containing 0.1% BSA, 5 mM EDTA, 0.004% Tween 20 (PBET) and 4% DMSO, was added alone or mixed with peptides at a concentration ranging between 0.04 and 100 µM, and incubated for 1 h at 37 °C followed by 1 h at RT. A biotinylated anti VEGF-A polyclonal antibody (R&D Systems) diluted in PBET at 150 ng/mL, was added to the wells and incubated for 1 h at 37 °C followed by 1 h at RT. […] The reaction was blocked by adding 30 µL/well of 4 N H2SO4 and the absorbance measured at 490 nm on a microplate reader (BenchMark, Biorad, Hercules, CA, USA).

[1] = competitive ELISA, VEGFR-1 coated 0.5 µg/mL, VEGF-A 5 ng/mL, peptides 0.04-100 µM, PBET, 4% DMSO, 1 h 37 °C then 1 h RT, absorbance 490 nm, mean of two independent experiments in triplicate, read-out: IC50 of VEGF-A binding to VEGFR1 (concentration at 50% inhibition)

T1 sequence (P17948 27-687 limits assumed, species assumed): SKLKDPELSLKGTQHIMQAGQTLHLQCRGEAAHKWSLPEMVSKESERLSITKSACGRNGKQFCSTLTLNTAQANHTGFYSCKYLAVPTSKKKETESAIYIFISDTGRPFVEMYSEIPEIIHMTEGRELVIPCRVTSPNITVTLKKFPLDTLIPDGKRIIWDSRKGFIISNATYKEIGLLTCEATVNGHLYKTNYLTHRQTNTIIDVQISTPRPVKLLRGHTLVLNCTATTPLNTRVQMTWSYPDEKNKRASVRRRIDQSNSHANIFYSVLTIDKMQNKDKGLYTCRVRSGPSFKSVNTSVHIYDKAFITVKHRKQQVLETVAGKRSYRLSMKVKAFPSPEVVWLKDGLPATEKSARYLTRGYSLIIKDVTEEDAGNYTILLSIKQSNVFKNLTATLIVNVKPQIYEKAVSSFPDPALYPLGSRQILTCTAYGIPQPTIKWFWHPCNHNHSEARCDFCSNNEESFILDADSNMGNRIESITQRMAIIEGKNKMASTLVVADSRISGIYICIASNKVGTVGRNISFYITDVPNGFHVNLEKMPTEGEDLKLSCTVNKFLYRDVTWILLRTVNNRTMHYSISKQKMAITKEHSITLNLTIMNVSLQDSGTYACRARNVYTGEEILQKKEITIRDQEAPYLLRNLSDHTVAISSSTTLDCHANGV

SMILES	IC50 [1]	Increase in inhibitory activity (reduction of IC50) upon TFA to acetate exchange (iVR1-Ac vs iVR1-TFA, VEGF-A/VEGFR1 competitive ELISA)	IC50 (acetate counter-ion, VEGF-A/VEGFR1, read-out: IC50 of iVR1 after TFA replaced with acetate (rounded, discussion))
N[C@H](CCC(=O)O)C(=O)N[C@@H](CSCc1ccccc1)C(=O)N[C@@H](CC1CCCCC1)C(=O)NCCCC[C@H](NC(=O)[C@H](CC1CCCCC1)NC(=O)[C@H](CSCc1ccccc1)NC(=O)[C@H](N)CCC(=O)O)C(=O)NCCCC[C@H](NC(=O)[C@H](CCCCNC(=O)[C@H](CC1CCCCC1)NC(=O)[C@H](CSCc1ccccc1)NC(=O)[C@H](N)CCC(=O)O)NC(=O)[C@H](CC1CCCCC1)NC(=O)[C@H](CSCc1ccccc1)NC(=O)[C@H](N)CCC(=O)O)C(=O)NCC(=O)O [iVR1-Ac, [D-Glu-L-Cys(Bzl)-L-Cha]4-Lys2-Lys-Gly]	1940 nM	about five	
N[C@H](CCC(=O)O)C(=O)N[C@@H](CSCc1ccccc1)C(=O)N[C@@H](CC1CCCCC1)C(=O)NCCCC[C@H](NC(=O)[C@H](CC1CCCCC1)NC(=O)[C@H](CSCc1ccccc1)NC(=O)[C@H](N)CCC(=O)O)C(=O)NCCCC[C@H](NC(=O)[C@H](CCCCNC(=O)[C@H](CC1CCCCC1)NC(=O)[C@H](CSCc1ccccc1)NC(=O)[C@H](N)CCC(=O)O)NC(=O)[C@H](CC1CCCCC1)NC(=O)[C@H](CSCc1ccccc1)NC(=O)[C@H](N)CCC(=O)O)C(=O)NCC(=O)O [iVR1, [D-Glu-L-Cys(Bzl)-L-Cha]4-Lys2-Lys-Gly]			< 2000 nM
N[C@H](CCC(=O)O)C(=O)N[C@@H](CSCc1ccccc1)C(=O)N[C@@H](CC1CCCCC1)C(=O)NCCCC[C@H](NC(=O)[C@H](CC1CCCCC1)NC(=O)[C@H](CSCc1ccccc1)NC(=O)[C@H](N)CCC(=O)O)C(=O)NCCCC[C@H](NC(=O)[C@H](CCCCNC(=O)[C@H](CC1CCCCC1)NC(=O)[C@H](CSCc1ccccc1)NC(=O)[C@H](N)CCC(=O)O)NC(=O)[C@H](CC1CCCCC1)NC(=O)[C@H](CSCc1ccccc1)NC(=O)[C@H](N)CCC(=O)O)C(=O)NCC(=O)O [iVR1-TFA, [D-Glu-L-Cys(Bzl)-L-Cha]4-Lys2-Lys-Gly]	9350 nM		

Source: publication PMC7014271, “Oral Delivery of a Tetrameric Tripeptide Inhibitor of VEGFR1 Suppresses Pathological Choroid Neovascularization” (International Journal of Molecular Sciences, 2020)
